Test results as given in article PMC11410943 (Nature Communications, 2024).
Converted amounts (≈) assume the structure as drawn. Like-named read-outs stand apart in the source and are kept apart here.

Tests used:
[1] = Hepatocyte stability / intrinsic clearance; assay type: in vitro ADME, human
[2] = First-in-human SAD study, PK; assay type: in vivo, healthy human volunteers; conditions: for half-life: both, human, plasma, iv
[3] = Plasma protein binding, equilibrium dialysis; assay type: in vitro ADME, rats; conditions: % bound
Pseudomonas aeruginosa = experiment: MIC; conditions: for MIC: Pseudomonas aeruginosa
hERG = hERG (Homo sapiens, UniProt Q12809); experiment: hERG manual patch-clamp; assay type: cell-based
Serratia marcescens = experiment: MIC; conditions: IHMA/CARB-X MDR clinical isolates 2019, N=45
[4] = Blood-brain barrier crossing
Klebsiella pneumoniae = experiment: MIC
[5] = tested on: MDR Gram-negative and Gram-positive pathogens; experiment: MIC
[6] = tested on: AChE, MAO-B, Adrenergic α1 A, 5-HT1A; experiment: Cerep-88 secondary pharmacology screen
Enterobacter cloacae = experiment: MIC; conditions: Enterobacter cloacae
P. aeruginosa = experiment: Neutropenic mouse; assay type: in vivo
[7] = molecular target: acetylcholine esterase (AChE) (Homo sapiens, UniProt P22303); experiment: AChE inhibition, reversibility on dilution; assay type: biochemical; conditions: 30 μM, 100-fold dilution to 0.3 μM, excess AChE
[8] = Dog pharmacokinetic study; assay type: in vivo, Beagle dog; conditions: dogs
[9] = IHMA/CARB-X MDR clinical isolates 2019, N=300
[10] = read-out: median MIC, panel of ATCC strains

Chain of hERG (Q12809 whole entry): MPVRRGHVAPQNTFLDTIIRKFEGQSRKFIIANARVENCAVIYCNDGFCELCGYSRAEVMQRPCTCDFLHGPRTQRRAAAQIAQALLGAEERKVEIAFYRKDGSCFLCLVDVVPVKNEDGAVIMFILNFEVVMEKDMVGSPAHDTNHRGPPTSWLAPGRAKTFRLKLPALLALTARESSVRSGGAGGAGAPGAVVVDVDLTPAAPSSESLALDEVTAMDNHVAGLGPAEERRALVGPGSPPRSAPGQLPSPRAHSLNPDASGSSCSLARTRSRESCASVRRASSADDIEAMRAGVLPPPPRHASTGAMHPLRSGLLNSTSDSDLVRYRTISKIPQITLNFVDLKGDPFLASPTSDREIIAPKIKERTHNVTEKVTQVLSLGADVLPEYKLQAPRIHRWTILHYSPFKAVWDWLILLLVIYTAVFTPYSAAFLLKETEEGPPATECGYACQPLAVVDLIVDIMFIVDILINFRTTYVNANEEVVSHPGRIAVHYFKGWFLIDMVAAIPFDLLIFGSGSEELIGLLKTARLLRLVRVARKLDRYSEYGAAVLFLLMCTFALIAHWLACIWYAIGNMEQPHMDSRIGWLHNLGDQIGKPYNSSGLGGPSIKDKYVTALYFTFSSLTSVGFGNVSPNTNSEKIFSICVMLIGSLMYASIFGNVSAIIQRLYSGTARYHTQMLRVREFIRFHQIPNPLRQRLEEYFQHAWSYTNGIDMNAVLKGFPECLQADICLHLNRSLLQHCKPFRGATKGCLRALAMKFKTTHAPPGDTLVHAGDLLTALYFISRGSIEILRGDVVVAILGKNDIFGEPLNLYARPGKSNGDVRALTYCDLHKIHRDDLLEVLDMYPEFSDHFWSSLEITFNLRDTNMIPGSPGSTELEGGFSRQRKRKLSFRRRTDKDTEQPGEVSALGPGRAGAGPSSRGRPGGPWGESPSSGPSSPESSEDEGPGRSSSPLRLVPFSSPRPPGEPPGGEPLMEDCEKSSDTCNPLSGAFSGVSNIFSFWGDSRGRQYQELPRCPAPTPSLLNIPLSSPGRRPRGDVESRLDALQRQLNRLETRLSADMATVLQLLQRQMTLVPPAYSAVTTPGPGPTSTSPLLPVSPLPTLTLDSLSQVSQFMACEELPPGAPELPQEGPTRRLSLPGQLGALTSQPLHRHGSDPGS
Chain of acetylcholine esterase (AChE) (P22303 32-614): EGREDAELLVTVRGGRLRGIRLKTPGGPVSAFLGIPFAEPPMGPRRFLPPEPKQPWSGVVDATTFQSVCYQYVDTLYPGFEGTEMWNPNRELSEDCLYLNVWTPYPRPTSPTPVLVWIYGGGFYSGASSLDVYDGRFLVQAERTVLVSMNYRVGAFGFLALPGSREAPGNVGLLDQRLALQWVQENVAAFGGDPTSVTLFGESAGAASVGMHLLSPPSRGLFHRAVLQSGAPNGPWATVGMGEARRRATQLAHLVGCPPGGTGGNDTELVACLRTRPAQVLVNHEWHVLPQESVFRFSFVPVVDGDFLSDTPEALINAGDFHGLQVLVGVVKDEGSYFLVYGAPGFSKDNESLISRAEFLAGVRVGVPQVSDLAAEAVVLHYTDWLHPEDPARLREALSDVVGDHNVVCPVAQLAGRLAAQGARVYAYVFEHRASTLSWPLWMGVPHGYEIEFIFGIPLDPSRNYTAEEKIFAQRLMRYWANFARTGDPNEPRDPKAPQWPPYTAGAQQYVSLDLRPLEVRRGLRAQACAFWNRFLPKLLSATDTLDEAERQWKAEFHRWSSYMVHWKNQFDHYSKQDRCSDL

Cn1c(=O)ccc2ccc(F)c(CCNC[C@H]3CN(c4cnc5c(n4)NC(=O)CO5)C(=O)O3)c21 [BWC0977, 6-[(5S)−5-[[[2-(7-Fluoro-1,2-dihydro-1-methyl-2-oxo-8-quinolinyl)ethyl]amino]methyl]−2-oxo-3-oxazolidinyl]−2H-pyrazino[2,3-b]−1,4-oxazin-3(4H)-one]
clearance predicted from CLint, % of liver blood flow (LBF) [1]: < 30% | in vitro resistance frequency (E. coli): < 1 × 10^−9 | resistance frequency (E. coli): 4 × 10^−9 | VD at steady state (Vss) across the dose levels ([2]; 120-1050 mg): 44.03 to 51.50 L/h | dose proportionality of plasma Cmax and AUC ([2]; 120-1050 mg): increased proportionally with dose | half-life ([2]; 120 mg): 3.3 h | half-life ([2]; 1050 mg): 8.4 h | plasma protein binding [3]: 94% | MIC90 (Pseudomonas aeruginosa; [9]): 1 µg/mL (≈ 2.13 µM) | MIC (Pseudomonas aeruginosa; NCTC13921, P. aeruginosa NCTC 13921): 0.25 µg/mL (≈ 0.534 µM) | MIC (Pseudomonas aeruginosa; [10]): 0.25 µg/mL (≈ 0.534 µM) | IC50 (hERG): 49.7 µM | MIC90 (Serratia marcescens): 1 µg/mL (≈ 2.13 µM) | crossing of the blood-brain barrier [4]: nor crosses the blood-brain barrier | MIC90 (Klebsiella pneumoniae; [9]): 2 µg/mL (≈ 4.27 µM) | MIC (Klebsiella pneumoniae; Klebsiella pneumoniae, read-out: median MIC, panel of ATCC strains): 0.03 µg/mL (≈ 0.064 µM) | MIC90 [5]: 0.03 to 2 µg/mL (≈ 0.064 to 4.27 µM) | result in Cerep-88 screen [6]: hits | MIC90 (Enterobacter cloacae; IHMA/CARB-X MDR clinical isolates 2019, N=152): 2 µg/mL (≈ 4.27 µM) | MIC (Enterobacter cloacae; [10]): 0.06 µg/mL (≈ 0.128 µM) | dose-ranging efficacy (bacterial burden) (P. aeruginosa; SC every 8 h, wild-type and MDR isolates): excellent dose-response | PK-PD driver of efficacy (P. aeruginosa; dose fractionation 160 mg/kg/day SC, P. aeruginosa NCTC 13921): free area-under-the-curve over MIC (fAUC/MIC) as the efficacy driver | reversibility of AChE inhibition [7]: rapidly reversed | unchanged drug excreted in urine [8]: 10% | in vitro resistance frequency (A. baumannii): 2.5 × 10^−9 | resistance frequency (A. baumannii): 2.5 × 10^−8
